Results as given in patent US10253002B2, “Compounds and methods of treating infections” (Neoculi Pty Ltd., priority 2013, dated 2019).
Values after ≈ are worked out from the molar mass of the structure shown. Where two headings read alike, the source gives them in different places.

Tested on: methicillin-resistant Staphylococcus aureus (MRSA)
Experiment: Broth microdilution MIC (CLSI), Example 1
Assay type: cell-based
Protocol: Cation adjusted Mueller Hinton Broth (CAMHB) was prepared using 100 mL sterile Mueller Hinton broth (pH adjusted). To each 100 mL volume, 125 μL of calcium stock solution (10 mg Ca^2+ per ml) and 43 μL magnesium stock solution (10 mg Mg^2+ per mL) was aseptically added. Sufficient broth is made up for daily use, with unused portions being stored at 4° C. overnight.
Potency was described as 1000 mg/g or 100%. The powder was dissolved in 10 mL DMSO and 1 mL volumes were aliquoted into eppendorf tubes and stored at −80° C.
For Staphylococcus aureus, a working solution of 256 μg/mL was prepared by diluting stock solutions as described above 1:100 in CAMHB (100 μL into 9.9 mL).
Serial dilutions were prepared in 96 well plates were set up in a safety cabinet according to methods standard in the art. Briefly: 90 μL of the working antibiotic solution was added to each well in Column 12 of the plate, and mixed well, before 90 μL was transferred to column 11. The solutions were mixed again, and then transferred to the next column as before, continuing the dilutions through to column 3. Mixing the well requires the pick up and expulsion of 90 μL in each well 3-4 times before picking up and transferring the 90 μL to the next well. […] The trays were set up as follows: 2 strains were tested in duplicate in one tray, such that strain 1 was located in rows A to D, strain 2 was located in rows E to H, etc.
Fresh cultures of bacteria were prepared for testing on sheep blood agar (SBA), and overnight incubation at 37° C. as follows; 2-3 colonies of each strain in 7 mL sterile saline, and the OD600 measured as an indication of the density (approx. […] or 0.5 McFarland Standard). The bacterial suspension was adjusted to a final absorbance of 0.08 to 0.100, using saline to achieve correct density, and as the blank. Within 15 minutes of preparation, the adjusted bacterial suspension with sterile saline 1:20 (1 mL into 19 mL sterile saline) to achieve a final bacterial concentration of 4 to 5×10^6 CFU/mL. The bacterial solution was placed into a sterile trough and 10 μL of bacterial solution added into wells 2 through to 12 on each required row (dilution of 1:10, with final concentration of bacteria in wells=5×10^5 CFU/mL). The tray was sealed and incubated at 37° C. for 18-24 h. The purity of bacterial suspension was confirmed by streaking out 50 μL of the 1:20 dilution onto a SBA plate, which was incubated for 37° C. for 18 h and examined. Viable counts were carried out to ensure that the correct concentration of bacteria and been added to the wells. The diluted bacterial solution (4 to 5×10^6 CFU/mL) was diluted 1:10 downwards by adding 100 μL to 900 μL of sterile saline in sterile tubes, and the serial dilutions continued 1:10 for 5 tubes. 100 μL (4-5 drops) of the 4th and 5th dilutions (tube 4=105 and tube 5=10^6 CFU/ml) was plated around in duplicate on pre-dried PCA agar plates and incubated at 37° C. overnight. The following day the number of colonies on the plates was counted and the average count in 100 μL obtained. The study was multiplied by 10 to obtain a viable bacterial count per mL.
Minimum inhibitory concentrations (μg/mL) were determined using the broth microdilution method recommended by the Clinical and Laboratory Standards Institute (CLSI) (Methods for Dilution Antimicrobial Susceptibility Tests for Bacteria That Grow Aerobically; Approved Standard—Seventh Edition. CLSI M7-A7, 2006; Performance Standards for Antimicrobial Disk and Dilution Susceptibility Tests for Bacteria Isolated from Animals; Approved Standard—Second Edition. CLSI M31-A2, 2002; Performance Standards for Antimicrobial Susceptibility Testing; CLSI M2-A9, 2006).
MIC breakpoints were determined by visual assessment and then confirmed using an ELISA plate reader, measuring absorbance levels at 450 nm.

[1] = Staphylococcus aureus, MRSA, MRSA 616, Test 1, read-out: MIC
[2] = Staphylococcus aureus, MRSA, MRSA 747, Test 1, read-out: MIC

Compound: CC1(C)S[C@@H]2[C@H](NC(=O)[C@H](N)c3ccccc3)C(=O)N2[C@H]1C(=O)O [Ampicillin]
- MIC90 (MRSA, 21 isolates): > 128 µg/mL
- MIC90 (MRSA, Staphylococcus aureus isolates of Table 3, Test 1, read-out: MIC90): > 128 µg/mL
- MIC90 (Staphylococcus aureus isolates of Table 3, Test 2): >128 µg/mL
- MIC (Staphylococcus aureus, ATCC 29213 / MRSA, S. aureus strain ATCC 29213, read-out: MIC of control strain (internal quality control)): 2 µg/mL
- MIC (Staphylococcus aureus, ATCC 29213 / MRSA, Staph. aureus ATCC 29213, Test 1, read-out: MIC): 2 µg/mL (≈ 5.72 µM)
- MIC (Staphylococcus aureus, ATCC 29213 / MRSA, Staph. aureus ATCC 29213, Test 2, read-out: MIC): 2 µg/mL (≈ 5.72 µM)
- MIC (Staphylococcus aureus, MRSA, 21 isolates, read-out: MIC mode): > 128 µg/mL
- MIC (Staphylococcus aureus, MRSA, MRSA 516, Test 1, read-out: MIC): 32 µg/mL (≈ 91.6 µM)
- MIC (Staphylococcus aureus, MRSA, MRSA 516, Test 2, read-out: MIC): 32 µg/mL (≈ 91.6 µM)
- MIC (Staphylococcus aureus, MRSA, MRSA 570, Test 1, read-out: MIC): > 128 µg/mL
- MIC (Staphylococcus aureus, MRSA, MRSA 570, Test 2, read-out: MIC): > 128 µg/mL
- MIC (Staphylococcus aureus, MRSA, MRSA 580, Test 1, read-out: MIC): > 128 µg/mL
- MIC (Staphylococcus aureus, MRSA, MRSA 580, Test 2, read-out: MIC): > 128 µg/mL
- MIC (Staphylococcus aureus, MRSA, MRSA 606, Test 1, read-out: MIC): 32 µg/mL (≈ 91.6 µM)
- MIC (Staphylococcus aureus, MRSA, MRSA 606, Test 2, read-out: MIC): 32 µg/mL (≈ 91.6 µM)
- MIC (Staphylococcus aureus, MRSA, MRSA 610, Test 1, read-out: MIC): 128 µg/mL (≈ 366 µM)
- MIC (Staphylococcus aureus, MRSA, MRSA 610, Test 2, read-out: MIC): 128 µg/mL (≈ 366 µM)
- MIC [1]: 64 µg/mL (≈ 183 µM)
- MIC (Staphylococcus aureus, MRSA, MRSA 616, Test 2, read-out: MIC): 64 µg/mL (≈ 183 µM)
- MIC (Staphylococcus aureus, MRSA, MRSA 622, Test 1, read-out: MIC): 64 µg/mL (≈ 183 µM)
- MIC (Staphylococcus aureus, MRSA, MRSA 622, Test 2, read-out: MIC): 64 µg/mL (≈ 183 µM)
- MIC (Staphylococcus aureus, MRSA, MRSA 698, Test 1, read-out: MIC): 64 µg/mL (≈ 183 µM)
- MIC (Staphylococcus aureus, MRSA, MRSA 698, Test 2, read-out: MIC): 64 µg/mL (≈ 183 µM)
- MIC (Staphylococcus aureus, MRSA, MRSA 713, Test 1, read-out: MIC): > 128 µg/mL
- MIC (Staphylococcus aureus, MRSA, MRSA 713, Test 2, read-out: MIC): > 128 µg/mL
- MIC (Staphylococcus aureus, MRSA, MRSA 718, Test 1, read-out: MIC): > 128 µg/mL
- MIC (Staphylococcus aureus, MRSA, MRSA 718, Test 2, read-out: MIC): > 128 µg/mL
- MIC (Staphylococcus aureus, MRSA, MRSA 728, Test 1, read-out: MIC): 64 µg/mL (≈ 183 µM)
- MIC (Staphylococcus aureus, MRSA, MRSA 728, Test 2, read-out: MIC): 64 µg/mL (≈ 183 µM)
- MIC (Staphylococcus aureus, MRSA, MRSA 734, Test 1, read-out: MIC): > 128 µg/mL
- MIC (Staphylococcus aureus, MRSA, MRSA 734, Test 2, read-out: MIC): > 128 µg/mL
- MIC (Staphylococcus aureus, MRSA, MRSA 741, Test 1, read-out: MIC): 8 µg/mL (≈ 22.9 µM)
- MIC (Staphylococcus aureus, MRSA, MRSA 741, Test 2, read-out: MIC): 8 µg/mL (≈ 22.9 µM)
- MIC [2]: > 128 µg/mL
- MIC (Staphylococcus aureus, MRSA, MRSA 747, Test 2, read-out: MIC): > 128 µg/mL
- MIC (Staphylococcus aureus, MRSA, MRSA 773, Test 1, read-out: MIC): 128 µg/mL (≈ 366 µM)
- MIC (Staphylococcus aureus, MRSA, MRSA 773, Test 2, read-out: MIC): 64 µg/mL (≈ 183 µM)
- MIC (Staphylococcus aureus, MRSA, MRSA 778, Test 1, read-out: MIC): > 128 µg/mL
- MIC (Staphylococcus aureus, MRSA, MRSA 778, Test 2, read-out: MIC): > 128 µg/mL
- MIC (Staphylococcus aureus, MRSA, MRSA 786, Test 1, read-out: MIC): 32 µg/mL (≈ 91.6 µM)
- MIC (Staphylococcus aureus, MRSA, MRSA 786, Test 2, read-out: MIC): 64 µg/mL (≈ 183 µM)
- MIC (Staphylococcus aureus, MRSA, MRSA 787, Test 1, read-out: MIC): > 128 µg/mL
- MIC (Staphylococcus aureus, MRSA, MRSA 787, Test 2, read-out: MIC): > 128 µg/mL
- MIC (Staphylococcus aureus, MRSA, MRSA 815, Test 1, read-out: MIC): 64 µg/mL (≈ 183 µM)
- MIC (Staphylococcus aureus, MRSA, MRSA 815, Test 2, read-out: MIC): 64 µg/mL (≈ 183 µM)
- MIC (Staphylococcus aureus, MRSA, MRSA 823, Test 1, read-out: MIC): > 128 µg/mL
- MIC (Staphylococcus aureus, MRSA, MRSA 823, Test 2, read-out: MIC): > 128 µg/mL
- MIC (Staphylococcus aureus, MRSA, MRSA 844, Test 1, read-out: MIC): 128 µg/mL (≈ 366 µM)
- MIC (Staphylococcus aureus, MRSA, MRSA 844, Test 2, read-out: MIC): 128 µg/mL (≈ 366 µM)
- MIC50 (Staphylococcus aureus, MRSA, 21 isolates): 64 µg/mL (≈ 183 µM)

Compound: N=C(N/N=C/c1ccc(Cl)cc1)N/N=C/c1ccc(Cl)cc1 [NCL812, 1,3-bis[(E)-(4-chlorophenyl)methyleneamino]guanidine]
- MIC [1]: 8 µg/mL (≈ 23.9 µM)
- MIC [2]: 8 µg/mL (≈ 23.9 µM)
